Data as given in patent US8299096B2, “Method for treating pulmonary diseases using rho kinase inhibitor compounds” (priority 2008, dated 2012).

Key:
[1] = Compound plasma concentrations in mice at 15 min post administration; format: in vivo, mouse; conditions: for concentration at 15 min: mouse, mice, plasma, 15 min post administration (oral dosing), mean of n = 3 mice, read-out: Plasma Mean Concentration
Protocol: Additionally, compound concentrations were determined in the plasma and lungs of male, ovalbumin-sensitized, Balb/c mice from a murine model of asthma. Test compounds were formulated in water or 1% polysorbate 80 and dosed at 15 μmol/kg for intraperitoneal (IP) or oral (PO) administration or formulated for intratracheal (IT) administration and dosed at 5 μmol/kg, which directly targets the lungs. Following completion of the in vivo study, mice were euthanized and blood and plasma collected approximately 2.5-3 hours post administration of test compound for bronchodialator (BD) studies and 24 hours post administration for anti-inflamatory (AI) studies. Lungs were homogenized in Matrix A lysing tubes using a FastPrep 24 tissue and cell homogenizer (MP Biomedicals, Solon, Ohio). Both plasma samples and lung extracts were assayed for compound concentrations using an on-line, solid phase extraction LC/MS/MS system.

rat tracheal rings = assay: Tracheal relaxation assay, carbachol precontracted rings
Protocol: Trachea were excised, cleaned of connective tissue and cut into cylindrical segments of 2-3 mm length. Two stainless steel wires were guided through the lumen of the tracheal ring. One wire was fixed in the tissue bath and the other was connected to a force transducer via surgical silk. […] Indomethacin (1 μM), a cyclooxygenase inhibitor, was added to the Krebs buffer and was present throughout the experiments. Contractile tensions were measured using an isometric force transducer (Grass Instruments) and signals were analyzed using specialized software (Chart v5.5, ADInstruments). The preparations were allowed to equilibrate at a resting tension of 0.3 to 0.5 gm prior to two challenges with 60 mM KCl to assess tissue viability. After washing, tissues were treated with 1 μM carbachol for 10 to 15 minutes to induce a contractile response. Test Compounds were added cumulatively to the bath every 30 minutes and reductions in tension were recorded. Basal tension was subtracted from all values and data were reported as a percentage of the maximal carbachol-induced contraction. Data were fit to the Hill equation using GraphPad Prism v5 software.

[2] = tested on: ovalbumin-sensitized mice; assay: Prevention of airway hyperreactivity development, anti-inflammatory dosing paradigm (Penh); format: in vivo, mouse
[3] = tested on: ovalbumin-sensitized mice; assay: Bronchodilator assay in ovalbumin-sensitized mouse model of asthma (Penh); format: in vivo; conditions: oral doses
Protocol: Male BALB/c mice were ordered from Charles River Laboratories (Raleigh, N.C.). The animals were approximately 19 to 21 grams at time of receipt. Upon arrival, the animals were randomized into groups of five males per cage and assigned to a dosing group. Animals were quarantined for 7 days under test conditions. They were observed daily for general health status and ability to adapt to the water bottles.
Animals were sensitized on day 0 and 14 of study by an intraperitoneal injection with 20 μg of ovalbumin (ova) and 2.0 mg aluminum hydroxide (alum) which initiates the development of a specific T-helper (Th) cells type 2 resulting in asthmatic animals. One group of animals received an injection of saline to use as non-asthmatic control animals. All animals were challenged with aerosolized 1% ova once daily for 25 minutes on days 28, 29, and 30 (Zosky, et al. Respiratory Research, 2004; 5:15). Aerosol challenge consists of using an Aerogen Aeroneb nebulizer and controller with a particle size of 4-6 μm mass median aerodynamic diameter (MMAD) with a distribution of 400 μl per minute. This aerosol challenge is necessary to target the Th2-driven allergic inflammation in the lower airways.
The test compounds and the control vehicle were administered to animals on the day of airway hyperreactivity evaluation 30 minutes to 1 hour before the evaluation to determine the bronchodilator effects of the compounds according to the bronchodilator dosing paradigm (FIG. 3A). Compounds were administered p.o. (orally), i.p. (intraperitoneally) at 15 μMol/kg unless otherwise noted (Table 4). Alternatively, compounds were administered i.t. (intratracheally) at varying doses as shown (FIG. 3B). On day 32 of the experiment, airway hyperreactivity was evaluated by placing conscious, unrestrained animals in a whole body plethysmometer (Buxco Wilmington, N.C.) and exposing them to escalating doses of nebulized methacholine, a known bronchial constrictor which acts through the muscarinic receptors of the lungs, (doses: […]-50 mg/ml). Exposure to the methacholine doses consisted of a 3 minute period during which a nebulizer was aerosolizing the methacholine and an additional 3 minute period following the cessation of nebulization. Over this 6 minute period, the plethysmometer monitors and generates numerical values for all parameters of the breath pattern. Enhanced pause (Penh), a unitless index of airway hyperreactivity, is derived from the expiratory side of the respiratory waveform measured via the plethysmograph and is used as an indirect measure of airway resistance and hyperreactivity. […] Following the methacholine dose response, all animals were anesthetized, bled and euthanized.
Within each experiment, a mouse was given a single compound and exposed to increasing doses of methacholine [0 (baseline), 0.375, 0.75, 1.5, 3, 6, 12, 25, 50 mg/ml]. The Penh value at each of the dose levels of methacholine represents the 6-minute average response. Change from baseline (CFB) in Penh was calculated at each methacholine dose and the area under the curve (AUC) for these CFB values was calculated using the trapezoidal rule. This same approach was applied for each mouse across multiple experiments.
For statistical analyses, a linear mixed-effects model where the response was the log 10 transformed value of AUC described above was used. Data from equal experimental conditions across experiments performed on different days were pooled for statistical analysis and data reporting. The various compounds were compared adjusting for the log 10-transformed baseline value of Penh and the chamber (1 of 10) of the plethysmometer each mouse was contained in during an experiment. A random intercept for each experiment was assumed to account for possible similarities of the results obtained from a given experiment (i.e., as a “blocking effect”).
For Table 4 and Table 5, Penh values are reported as log 10 transformed AUC values. […]

[4] = tested on: ovalbumin-sensitized mice; assay: Anti-inflammatory assay in ovalbumin-sensitized mouse model of asthma (BALF cells and cytokines); format: in vivo; conditions: dosed orally to day 31, anti-inflammatory dosing paradigm
Source text: Mouse model of asthma via ovalbumin sensitization was created as described in Example 5. The anti-inflammatory dosing paradigm (FIG. 4) was utilized to evaluate the anti-inflammatory effects of experimental compounds. The anti-inflammatory dosing paradigm consists of dosing the animals once a day starting on day 27 and finishing on either day 30 or 31 (1 hr prior to the aerosolized ovalbumin challenges on days 28 to 30) but not on day 32 when hyper-reactivity evaluation occurs.
Bronchoalveolar lavage fluid (BALF) was collected by infusing 3.0 ml of saline with 10% fetal calf serum into the lungs via the trachea and then withdrawing the fluid. The total amount of cells/ml of BALF fluid was determined via manual cell count on hemocytometer. The BALF was centrifuged, supernatant removed and analyzed for cytokine concentrations as described below, and cell pellet reconstituted in 500 μL of fluid. Cytospin slides were prepared from the cell pellet using 100 μL of fluid and spinning samples for 5 minutes at 5000 rpms in a cytospin centrifuge. Following Hema3 stain, relative percentages of individual leukocytes were determined on a 200 cell count for each sample. The final concentration of individual leukocyte cell types per ml of BALF was determined by multiplication of the relative percentage of individual leukocytes with the total amount of cells/ml of BALF fluid.
The concentrations of cytokines in the BALF samples were determined using commercially available Bio-plex kits (Bio-Rad) for the detection of mouse IL-5, IL-13, and Eotaxin. The analysis of cytokine levels was measured using the Bio-Plex 200 (Bio-Rad) system according to the manufacturer's instructions.

`CC(=O)NCc1cccc(CN2CCC[C@@H](Nc3ccc4[nH]ncc4c3)C2)c1` [Compound 1.194] gave a concentration at 15 min [1] of 355 nM.

Molecule `Fc1ccc(CN2CCC[C@@H](Nc3ccc4[nH]ncc4c3)C2)cc1` [Compound 1.146] has a concentration at 15 min [1] of 1260 nM.

For `c1cc(CN2CCC[C@@H](Nc3ccc4[nH]ncc4c3)C2)cc(C2CC2)c1` [Compound 1.202], the concentration at 15 min [1] was 130 nM.

`c1cc(N[C@@H]2CCN(Cc3ccc4c(c3)OCCO4)C2)c2ccncc2c1` [Compound 2.056] showed a concentration at 15 min [1] of 1260 nM.

`OCCOc1cccc(CN2CCC[C@H](Nc3cccc4cnccc34)C2)c1` [Compound 2.036] gave a concentration at 15 min [1] of 1340 nM.

`Brc1ccc(CN2CCC[C@H](Nc3ccc4[nH]ncc4c3)C2)cc1` [Compound 1.142] showed a concentration at 15 min [1] of 330 nM.

`Brc1cccc(CN2CCC[C@@H](Nc3ccc4[nH]ncc4c3)C2)c1` [Compound 1.210] gave a concentration at 15 min [1] of 286 nM.

In the case of `O=S(=O)(c1cccc2cnccc12)N1CCCNCC1` [fasudil], the “Percentage of carbachol-induced contraction at 10 μM compound, Avg %” value (rat tracheal rings; 10 μM compound, 1 μM carbachol precontracted rat trachea rings) was “least efficacious” and the “IC50, tracheal ring relaxation” value (rat tracheal rings; carbachol precontracted tissue) was “could not be obtained”.

Work on `Cc1ccc(CN2CCC[C@H](Nc3ccc4[nH]ncc4c3)C2)c(C)c1` [Compound 1.155] yielded a concentration at 15 min [1] of 32.4 nM.

With `Cc1ccc(CN2CCC[C@H](Nc3ccc4[nH]ncc4c3)C2)cc1` [Compound 1.078] the concentration at 15 min [1] was 1020 nM.

`CCOc1cccc(CN2CCC[C@@H](Nc3ccc4[nH]ncc4c3)C2)c1` [Compound 1.203] showed a concentration at 15 min [1] of 1130 nM.

`OCCOc1cccc(CN2CCC[C@H](Nc3ccc4[nH]ncc4c3)C2)c1` [Compound 1.090] showed a concentration at 15 min [1] of 5.9 nM.

With `O=C(COc1cccc(CN2CC[C@@H](Nc3cccc4cnccc34)C2)c1)N1CCOCC1` [Compound 2.043] the concentration at 15 min [1] was 60.8 nM.

`COc1ccc(CN2CCC[C@H](Nc3ccc4[nH]ncc4c3)C2)cc1NS(C)(=O)=O` [Compound 1.234] gave a concentration at 15 min [1] of 240 nM.

`CC(=O)NCc1cccc(CN2CC[C@@H](Nc3cccc4cnccc34)C2)c1` [Compound 2.063] gave a concentration at 15 min [1] of 348 nM.

For `Cc1cccc(CN2CCC[C@@H](Nc3ccc4[nH]ncc4c3)C2)c1C` [Compound 1.172], the concentration at 15 min [1] was 111 nM.

Work on `OCCOc1cccc(CN2CCC[C@@H](Nc3ccc4[nH]ncc4c3)C2)c1` [Compound 1.092] yielded a concentration at 15 min [1] of 314 nM.

In the case of `OCCOc1cccc(CN2CCC[C@@H](Nc3cccc4cnccc34)C2)c1` [Compound 2.034], the concentration at 15 min [1] was 665 nM.

`CS(=O)(=O)c1cccc(CN2CCC[C@H](Nc3ccc4[nH]ncc4c3)C2)c1` [Compound 1.182] gave a concentration at 15 min [1] of 452 nM.

With `O=C(COc1cccc(CN2CCC[C@@H](Nc3ccc4[nH]ncc4c3)C2)c1)N1CCOCC1` [Compound 1.127] the concentration at 15 min [1] was 980 nM.

`CCSc1ccc(CN2CCC[C@H](Nc3ccc4[nH]ncc4c3)C2)cc1` [Compound 1.168] gave a concentration at 15 min [1] of 588 nM.

For `CSc1cccc(CN2CCC[C@@H](Nc3ccc4[nH]ncc4c3)C2)c1` [Compound 1.159], the concentration at 15 min [1] was 250 nM.

`OCc1ccc(CN2CCC[C@H](Nc3ccc4[nH]ncc4c3)C2)cc1` [Compound 1.223] gave a concentration at 15 min [1] of 12.8 nM.

`Fc1ccc(CN2CC[C@@H](Nc3cccc4cnccc34)C2)cc1F` [Compound 2.062] gave a concentration at 15 min [1] of 660 nM.

In the case of `CC(C)(C)NCC(O)c1ccc(O)c(CO)c1` (stereo not shown) [Salbutamol, reference compound], the “Efficacy using the anti-inflammatory dosing paradigm” value ([2]; anti-inflammatory dosing paradigm) was “ineffective”.

`COc1ccc(CN2CCC[C@@H](Nc3ccc4[nH]ncc4c3)C2)cc1` [Compound 1.226] showed a concentration at 15 min [1] of 526 nM.

For `Fc1ccc(CN2CCC[C@H](Nc3ccc4[nH]ncc4c3)C2)cc1F` [Compound 1.072], the concentration at 15 min [1] was 1770 nM.

`c1ccc(CN2CCC[C@@H](Nc3ccc4[nH]ncc4c3)C2)cc1` [Compound 1.110] gave a concentration at 15 min [1] of 792 nM.

`Oc1cccc(CN2CCC[C@@H](Nc3ccc4[nH]ncc4c3)C2)c1` [Compound 1.145] showed a concentration at 15 min [1] of 109 nM.

`NC(=O)Cn1ccc2ccc(CN3CCC[C@@H](Nc4ccc5[nH]ncc5c4)C3)cc21` [Compound 1.106] showed a concentration at 15 min [1] of 441 nM.

Work on `Cc1ccc(CN2CC[C@@H](Nc3ccc4[nH]ncc4c3)C2)cc1` [Compound 1.242] yielded a concentration at 15 min [1] of 580 nM.

`Clc1cccc(CN2CCC[C@@H](Nc3ccc4[nH]ncc4c3)C2)c1` [Compound 1.191] gave a concentration at 15 min [1] of 260 nM.

Molecule `c1cc2c(cc1CN1CCC[C@@H](Nc3ccc4[nH]ncc4c3)C1)OCCO2` [Compound 1.177] has a concentration at 15 min [1] of 283 nM.

`COc1ccc(CN2CC[C@@H](Nc3ccc4[nH]ncc4c3)C2)cc1` [Compound 1.245] showed a concentration at 15 min [1] of 1520 nM.

In the case of `c1cc2cc(CN3CCC[C@@H](Nc4ccc5[nH]ncc5c4)C3)ccc2[nH]1` [Compound 1.143], the concentration at 15 min [1] was 274 nM.

`C=Cc1ccc(CN2CCC[C@H](Nc3ccc4[nH]ncc4c3)C2)cc1` [Compound 1.229] showed a concentration at 15 min [1] of 1450 nM.

Work on `CC(C)c1ccc(CN2CCC[C@@H](Nc3ccc4[nH]ncc4c3)C2)cc1` [Compound 1.204] yielded a concentration at 15 min [1] of 549 nM.

`Cc1ccc(CN2CCC[C@H](Nc3ccc4[nH]ncc4c3)C2)cc1O` [Compound 1.151] showed a concentration at 15 min [1] of 479 nM.

With `c1ccc(CN2CCC[C@H](Nc3ccc4[nH]ncc4c3)C2)cc1` [Compound 1.227] the concentration at 15 min [1] was 1860 nM.

`C=Cc1ccc(CN2CCC[C@@H](Nc3ccc4[nH]ncc4c3)C2)cc1` [Compound 1.208] gave a concentration at 15 min [1] of 281 nM.

`Brc1cccc(CN2CCC[C@H](Nc3ccc4[nH]ncc4c3)C2)c1` [Compound 1.183] showed a concentration at 15 min [1] of 708 nM.

In the case of `c1cc2cc(CN3CCC[C@@H](Nc4ccc5[nH]ncc5c4)C3)ccc2o1` [Compound 1.131], the “Reduction in airway hyperresponsivness” value [3] was “statistically significant reduction”, the “Airway eosinophil infiltration (eosinophils per ml of BALF)” value [4] was “reduced” and the “Prevention of airway hyperreactivity to metacholine on Day 32” value ([2]; oral, 15 μMol/kg once a day during days 27 to 31) was “prevention of airway hyperreactivity”. The “Detection in mouse plasma 15 minutes after oral dosing” value ([1]; mouse plasma, 15 minutes, oral) was “readily detectable”.

Work on `c1cc(C2CC2)ccc1CN1CCC[C@H](Nc2ccc3[nH]ncc3c2)C1` [Compound 1.185] yielded a concentration at 15 min [1] of 1020 nM.

Work on `CN(c1cccc(CN2CCC[C@H](Nc3ccc4[nH]ncc4c3)C2)c1)S(C)(=O)=O` [Compound 1.198] yielded a concentration at 15 min [1] of 643 nM.

For `NC(=O)Cn1ccc2ccc(CN3CCC[C@H](Nc4ccc5[nH]ncc5c4)C3)cc21` [Compound 1.107], the concentration at 15 min [1] was 211 nM.

In the case of `c1cc2c(cc1CN1CCC[C@@H](Nc3ccc4[nH]ncc4c3)C1)CCO2` [Compound 1.246], the concentration at 15 min [1] was 587 nM.

Molecule `Clc1ccc(CN2CC[C@@H](Nc3cccc4cnccc34)C2)cc1` [Compound 2.027] has a concentration at 15 min [1] of 503 nM.

`Clc1cccc(CN2CCC[C@H](Nc3ccc4[nH]ncc4c3)C2)c1` [Compound 1.170] gave a concentration at 15 min [1] of 639 nM.
